Reference: PMC10817943 (Nature Communications, 2024)
In brackets after ≈: the same amount, converted by molar mass. Several values for one entry are separate records, joined by “and”; a condition that tells them apart may be missing. Identical values can stand only once. Like-named read-outs stand apart in the source and are kept apart here. Numbered stars: 1 amine (or outer) side, 2 acyl side, 3 side chain; on linkers, the order of the positions; unused ones are H or OH. Bridge positions count the residues as written; N and C are the ends. Square brackets hold non-standard residues; d marks the D form. Peptide text beside a SMILES is read from it. * marks the point of attachment. ξ: configuration not given here. X1 = CCC1CC(C(=O)[*:2])N([*:1])C1; Butanoyl(2-oxo) = CCC(=O)C(=O)*; ξPro(4ξ-Me) = CC1CNC(C(=O)O)C1; NMeT = CN[CH](C(=O)O)[CH](C)O; NMeL = CN[CH](CC(C)C)C(=O)O; hLeu = CC(C)CC[CH](N)C(=O)O; NMeV = CN[CH](C(=O)O)C(C)C

Assays:
[1] = test system: M. smegmatis mc^2155 reporter strain harboring PrecA-LUX; details: for luminescence induction: RecA reporter, ciprofloxacin 0.06 µg/mL, MPA 0.125 µg/mL
[2] = test system: M. smegmatis mc^2155 GM^R; assay: microbe, parasite or virus in culture; format: cell-based; details: Mycolicibacterium smegmatis, MC^2155, read-out: MIC M. smegmatis mc^2155 GM^R
C. freundii DSM 30039 = assay: microbe, parasite or virus in culture; format: cell-based; details: Citrobacter freundii, DSM30039, read-out: MIC C. freundii DSM 30039
[3] = test system: M. tuberculosis (Mtb) strain H37Rv; assay: microbe, parasite or virus in culture; format: cell-based, Mycobacterium tuberculosis
A. baumannii DSM 30008 = assay: microbe, parasite or virus in culture; format: cell-based; details: Acinetobacter baumannii, DSM30008, read-out: MIC A. baumannii DSM 30008
[4] = test system: M. marinum (Mm) strain M (ATCC BAA-535); assay: microbe, parasite or virus in culture; format: cell-based; details: Mycobacterium marinum, ATCCBAA535, read-out: MIC M. marinum strain M
[5] = test system: M. tuberculosis (Mtb) strain H37Ra; assay: microbe, parasite or virus in culture; format: cell-based; details: Mycobacterium tuberculosis, read-out: MIC Mtb H37Ra
[6] = test system: M. tuberculosis (Mtb) strain H37Rv; details: cited from earlier work
E. coli BW25113 = assay: microbe, parasite or virus in culture; format: cell-based; details: Escherichia coli, BW25113, read-out: MIC E. coli BW25113
S. aureus Newman = assay: microbe, parasite or virus in culture; format: cell-based; details: Staphylococcus aureus, read-out: MIC S. aureus Newman
[7] = biological target: M. smegmatis DnaN (msDnaN) (Mycolicibacterium smegmatis, UniProt A0QND6); assay: biochemical; format: binding; details: for Response (Average): MST source data, runs #1-#3, listed as MP A
B. subtilis DSM 10 = assay: microbe, parasite or virus in culture; format: cell-based; details: Bacillus subtilis, DSM10, read-out: MIC B. subtilis DSM 10
[8] = test system: M. smegmatis mc^2155 reporter strain harboring PradA-LUX; details: for luminescence induction: RadA reporter, ciprofloxacin 0.06 µg/mL, MPA 0.125 µg/mL
CHO-K1 cells = assay: cells; format: cell-based, Chinese hamster (Cricetulus griseus); details: Cricetulus griseus, CHO-K1, 120 h, read-out: IC50 CHO-K1
[9] = test system: M. smegmatis (Msmeg) strain mc^2155; assay: microbe, parasite or virus in culture; format: cell-based; details: Mycolicibacterium smegmatis, MC^2155, read-out: MIC M. smegmatis mc^2155

Sequence of M. smegmatis DnaN (msDnaN) (A0QND6 whole entry, looked up): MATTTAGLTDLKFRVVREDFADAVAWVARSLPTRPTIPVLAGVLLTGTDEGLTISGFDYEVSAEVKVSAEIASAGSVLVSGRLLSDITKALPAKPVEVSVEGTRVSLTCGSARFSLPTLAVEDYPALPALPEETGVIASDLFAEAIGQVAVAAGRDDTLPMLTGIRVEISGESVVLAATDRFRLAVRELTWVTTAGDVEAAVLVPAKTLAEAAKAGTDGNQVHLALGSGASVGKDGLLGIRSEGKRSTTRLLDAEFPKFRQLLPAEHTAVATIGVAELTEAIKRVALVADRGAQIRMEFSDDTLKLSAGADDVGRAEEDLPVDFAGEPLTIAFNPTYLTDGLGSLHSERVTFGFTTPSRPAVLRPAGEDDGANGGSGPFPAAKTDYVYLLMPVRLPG

CCC(=O)C(=O)N(C)C(C(=O)N1CC(CC)CC1C(=O)N(C)C1C(=O)NC(CC(C)C)C(=O)N2CC(C)CC2C(=O)NC(CCC(C)C)C(=O)N(C)C(C(C)C)C(=O)N2CCCC2C(=O)N(C)C(CC(C)C)C(=O)NCC(=O)OC1C)C(C)C (centres unmarked) [Mycoplanecin A] ({Butanoyl(2-oxo)}-[NMeV][X1][NMeT]L[ξPro(4ξ-Me)][hLeu][NMeV]P[NMeL]G; ester 3-C; configuration not given here)
induction of SOS response through RecA (luminescence) ([1]; 2x MIC, listed as MP A): Strong induction of luminescence | luminescence induction ([1]; elapsed time 0:00:00): 1234 RLU | luminescence induction ([1]; elapsed time 3:00:00): 8420 RLU | luminescence induction ([1]; elapsed time 6:00:00): 19572 RLU | luminescence induction ([1]; elapsed time 9:00:00): 19402 RLU | luminescence induction ([1]; elapsed time 12:00:00): 19729 RLU | luminescence induction ([1]; elapsed time 15:00:00): 23383 RLU | luminescence induction ([1]; elapsed time 18:00:00): 24012 RLU | luminescence induction ([1]; elapsed time 21:00:00): 23254 RLU | luminescence induction ([1]; elapsed time 24:00:00): 21764 RLU | luminescence induction ([1]; elapsed time 27:00:00): 21831 RLU | luminescence induction ([1]; elapsed time 30:00:00): 22602 RLU | luminescence induction ([1]; elapsed time 33:00:00): 24786 RLU | luminescence induction ([1]; elapsed time 36:00:00): 30979 RLU | luminescence induction ([1]; elapsed time 39:00:00): 43998 RLU | luminescence induction ([1]; elapsed time 42:00:00): 72104 RLU | luminescence induction ([1]; elapsed time 45:00:00): 126348 RLU | luminescence induction ([1]; elapsed time 48:00:00): 167800 RLU | luminescence induction ([1]; elapsed time 51:00:00): 276102 RLU | luminescence induction ([1]; elapsed time 54:00:00): 398120 RLU | luminescence induction ([1]; elapsed time 57:00:00): 382129 RLU | luminescence induction ([1]; elapsed time 60:00:00): 236913 RLU | luminescence induction ([1]; elapsed time 63:00:00): 123029 RLU | luminescence induction ([1]; elapsed time 66:00:00): 65825 RLU | luminescence induction ([1]; elapsed time 69:00:00): 39152 RLU | luminescence induction ([1]; elapsed time 72:00:00): 26573 RLU | luminescence induction ([1]; elapsed time 75:00:00): 20127 RLU | luminescence induction ([1]; elapsed time 78:00:00): 16583 RLU | luminescence induction ([1]; elapsed time 81:00:00): 14319 RLU | luminescence induction ([1]; elapsed time 84:00:00): 12316 RLU | luminescence induction ([1]; elapsed time 87:00:00): 11375 RLU | MIC [2]: 4 µg/mL (≈ 3.38 µM) | MIC (C. freundii DSM 30039): > 64 µg/mL | lower MIC against Mtb H37Rv than initially reported [3]: four-fold | MIC ([3]; Mycobacterium tuberculosis, H37RV, read-out: MIC Mtb H37Rv): 0.102 µg/mL (≈ 0.0862 µM) | MIC (A. baumannii DSM 30008): > 64 µg/mL | MIC [4]: 0.5 µg/mL (≈ 0.422 µM) | MIC [5]: 0.03 µg/mL (≈ 0.0253 µM) | MIC against Mtb H37Rv initially reported [6]: 0.39 µg/mL (≈ 0.33 µM) | MIC (E. coli BW25113): > 64 µg/mL | MIC (S. aureus Newman): > 64 µg/mL | Kd [7]: 95.4 ± 58 nM | Response (Average) ([7]; Dose 1.22E-08 (unit not given)): 901.8 and 900.043 and 900.321 | Response (Average) ([7]; Dose 1.25E-05 (unit not given)): 916.3 and 910.333 and 908.121 | Response (Average) ([7]; Dose 1.53E-09 (unit not given)): 900.5 and 901.137 and 897.639 | Response (Average) ([7]; Dose 1.56E-06 (unit not given)): 912 and 910.977 and 908.315 | Response (Average) ([7]; Dose 1.95E-07 (unit not given)): 911.4 and 903.026 and 901.872 | Response (Average) ([7]; Dose 2.44E-08 (unit not given)): 900.5 and 898.574 and 901.47 | Response (Average) ([7]; Dose 2.50E-05 (unit not given)): 912.5 and 912.466 and 910.671 | Response (Average) ([7]; Dose 3.05E-09 (unit not given)): 907.2 and 900.824 and 900.843 | Response (Average) ([7]; Dose 3.13E-06 (unit not given)): 913.2 and 908.487 and 910.005 | Response (Average) ([7]; Dose 3.91E-07 (unit not given)): 910.5 and 900.599 and 903.733 | Response (Average) ([7]; Dose 4.88E-08 (unit not given)): 904.4 and 896.349 and 895.973 | Response (Average) ([7]; Dose 5.00E-05 (unit not given)): 912 and 911.551 and 911.531 | Response (Average) ([7]; Dose 6.10E-09 (unit not given)): 899.2 and 900.167 and 896.514 | Response (Average) ([7]; Dose 6.25E-06 (unit not given)): 912 and 910.662 and 909.72 | Response (Average) ([7]; Dose 7.81E-07 (unit not given)): 913.8 and 908.369 and 909.33 | Response (Average) ([7]; Dose 9.77E-08 (unit not given)): 902.5 and 896.716 and 900.856 | MIC (B. subtilis DSM 10): > 64 µg/mL | induction of DNA repair through RadA (luminescence) ([8]; 2x MIC, listed as MP A): Strong induction of luminescence | luminescence induction ([8]; elapsed time 0:00:00): 121 RLU | luminescence induction ([8]; elapsed time 3:00:00): 1545 RLU | luminescence induction ([8]; elapsed time 6:00:00): 2517 RLU | luminescence induction ([8]; elapsed time 9:00:00): 2232 RLU | luminescence induction ([8]; elapsed time 12:00:00): 2473 RLU | luminescence induction ([8]; elapsed time 15:00:00): 2636 RLU | luminescence induction ([8]; elapsed time 18:00:00): 2684 RLU | luminescence induction ([8]; elapsed time 21:00:00): 2416 RLU | luminescence induction ([8]; elapsed time 24:00:00): 2295 RLU | luminescence induction ([8]; elapsed time 27:00:00): 2095 RLU | luminescence induction ([8]; elapsed time 30:00:00): 2147 RLU | luminescence induction ([8]; elapsed time 33:00:00): 2090 RLU | luminescence induction ([8]; elapsed time 36:00:00): 2617 RLU | luminescence induction ([8]; elapsed time 39:00:00): 3126 RLU | luminescence induction ([8]; elapsed time 42:00:00): 4043 RLU | luminescence induction ([8]; elapsed time 45:00:00): 5111 RLU | luminescence induction ([8]; elapsed time 48:00:00): 7463 RLU | luminescence induction ([8]; elapsed time 51:00:00): 8233 RLU | luminescence induction ([8]; elapsed time 54:00:00): 11519 RLU | luminescence induction ([8]; elapsed time 57:00:00): 17058 RLU | luminescence induction ([8]; elapsed time 60:00:00): 25987 RLU | luminescence induction ([8]; elapsed time 63:00:00): 36814 RLU | luminescence induction ([8]; elapsed time 66:00:00): 80633 RLU | luminescence induction ([8]; elapsed time 69:00:00): 73655 RLU | luminescence induction ([8]; elapsed time 72:00:00): 45431 RLU | luminescence induction ([8]; elapsed time 75:00:00): 26035 RLU | luminescence induction ([8]; elapsed time 78:00:00): 15293 RLU | luminescence induction ([8]; elapsed time 81:00:00): 10478 RLU | luminescence induction ([8]; elapsed time 84:00:00): 7153 RLU | luminescence induction ([8]; elapsed time 87:00:00): 4415 RLU | IC50 (CHO-K1 cells): > 37 µg/mL | MIC [9]: 0.0625 µg/mL (≈ 0.0528 µM)
